Assay results: patent publication US11390621B2, “Chiral indole compounds and their use” (ARIAGEN, INC., priority 2019, dated 2022)
“And” between values parts separate entries of the source, which are not always exact repeats. Identical values can stand only once. Like-named read-outs stand apart in the source and are kept apart here.

Columns and labels:
[1] = biological target: T1, AhR (Homo sapiens, UniProt P35869); assay: EROD assay (7-ethoxy-resorufin-O-deethylase; CYP1A1 activity) in human HepG2 cells; type: cell-based
T1 construct: host or cells: human HepG2 cells
T1 sequence (P35869 11-848): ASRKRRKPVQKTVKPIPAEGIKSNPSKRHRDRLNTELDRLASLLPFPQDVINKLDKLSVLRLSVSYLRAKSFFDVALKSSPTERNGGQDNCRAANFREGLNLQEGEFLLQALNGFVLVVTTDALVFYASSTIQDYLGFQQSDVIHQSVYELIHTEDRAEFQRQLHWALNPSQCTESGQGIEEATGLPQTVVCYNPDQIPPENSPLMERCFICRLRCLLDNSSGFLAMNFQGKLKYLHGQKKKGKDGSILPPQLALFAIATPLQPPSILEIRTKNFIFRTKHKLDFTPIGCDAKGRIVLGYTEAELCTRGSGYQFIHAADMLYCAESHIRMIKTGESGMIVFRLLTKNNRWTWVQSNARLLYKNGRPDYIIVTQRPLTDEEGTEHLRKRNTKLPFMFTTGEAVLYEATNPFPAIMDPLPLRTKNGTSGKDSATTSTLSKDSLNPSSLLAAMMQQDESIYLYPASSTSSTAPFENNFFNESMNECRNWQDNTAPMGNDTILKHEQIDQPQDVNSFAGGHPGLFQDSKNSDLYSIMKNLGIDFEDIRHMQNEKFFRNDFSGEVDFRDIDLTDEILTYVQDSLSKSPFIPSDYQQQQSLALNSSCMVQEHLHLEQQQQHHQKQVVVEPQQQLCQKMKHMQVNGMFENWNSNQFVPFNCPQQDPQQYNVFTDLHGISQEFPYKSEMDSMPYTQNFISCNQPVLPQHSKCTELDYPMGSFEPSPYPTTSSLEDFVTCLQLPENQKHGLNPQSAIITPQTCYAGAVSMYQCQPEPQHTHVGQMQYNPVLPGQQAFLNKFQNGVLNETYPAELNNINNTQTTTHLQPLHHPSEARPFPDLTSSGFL
Protocol: CYP1A1 induction is under the control of the AhR signaling pathway. This Example describes an in vitro assay (7-ethoxy-resorufin-O-deethylase (EROD) assay) that evaluated the AhR modulating activities of the indole compounds described herein. In this assay, the indole compounds were incubated with human HepG2 cells or mouse Hepa1-6 cells. The activity of CYP1A1 in the cells was measured by the conversion of substrate 7-ethoxyresorufin, with the readout being a fluorescence signal associated with the conversion product. The EC50 values of the indole compounds as well as the maximum luminescence induced by them in the assay were determined.
Human HepG2 cells were obtained from Sigma Aldrich (Catalog 85011430-1VL).
Human HepG2 cells were grown to 60-80% confluency in tissue culture flasks, lifted with non-enzymatic cell dissociation solution (cell stripper), seeded in a 384-well plate at 5,000 cells per well, treated with the test compounds, and incubated for 20 hours overnight at 37° C. The treatment medium was removed and a solution of substrate 7-ethoxyresorufin (ETX) was added to initiate the reaction. The plate was incubated at 37° C. for 30 minutes. The reaction was subsequently terminated by adding tempered methanol. Fluorescent emission was measured at 590 nm with excitation at 530 nm in a FLEXSTATION III instrument (Molecular Devices).

[2] = In vivo pharmacokinetic studies in rats; design: species or system SD rats; conditions: rats; for AUC(0-t): read-out: AUClast; for Tmax at 1 day: read-out: Tmax
Protocol: This example describes pharmacokinetic (PK) studies of ARI-164, ARI-165, ARI-186, ARI-224, and ARI-226 in mice and rats. In the present studies, the test compounds were given to groups of mice and/or rats (N=3 in each group), intravenously (IV) at 2 mg/kg or orally (PO) at 10, 30, or 40 mg/kg. ARI-186, ARI-224 and ARI-226 were given orally to rats QD for 5 days at 10 mg/kg to assess whether decreased susceptibility to CYP1A1/1A2 metabolism would lead to increased accumulation. IV doses were formulated in DMSO, while PO doses were formulated in a 50/50 mixture of PEG400 and Tween 80 (single dose mouse and rat studies for ARI-164, ARI-165, ARI-186, ARI-224, ARI-226) or PEG400/Kolliphor HS15/Oleic Acid 45/45/10 (ARI-164 repeat dose rat study). Blood samples were collected at pre-dose and over a period of 24 hours post-dose. Plasma concentrations of the test compounds were determined by HPLC.

[3] = SD, rat, plasma, po, 10 mg/kg, repeat 10 mg/kg PO QD, Day 5, Mean
[4] = SD, rat, plasma, po, 10 mg/kg, repeat 10 mg/kg PO QD, Day 5, individual animal
[5] = Sprague-Dawley (SD), rat, plasma, po, 10 mg/kg, repeat 10 mg/kg PO QD, Day 1, Mean of 3 animals
[6] = Sprague-Dawley, rat, plasma, po, 10 mg/kg, repeat 10 mg/kg PO QD, Day 1, individual animal
[7] = Sprague-Dawley, rat, plasma, po, 10 mg/kg, repeat 10 mg/kg PO QD, Day 5, Mean
[8] = repeat 10 mg/kg PO QD, Day 1, individual animal
[9] = repeat 10 mg/kg PO QD, Day 5, individual animal

## N[C@@H](c1csc(C(=O)c2c[nH]c3cc(F)ccc23)n1)C(F)(F)F [ARI-224]
[1]; HepG2, human HepG2 cells, Plate 2
  EC90: 152 nM
[1]; human HepG2 cells
  fold more potent than ARI-164 by EC50: 3.1 ×
  fold more potent than ARI-164 by EC90: 0.90 ×
[1]; human HepG2 cells, Plate 2
  EC50: 33.7 nM
[2]; [3]
  AUC(0-inf): 8.24 ng·h/mL
  MRT inf at 5 days: 1.95 h
  half-life at 5 days: 1.28 h
[2]; [4]
  AUC(0-inf): 8.24 ng·h/mL
  MRT inf at 5 days: 1.95 h
  half-life at 5 days: 1.28 h
[2]; [5]
  AUC(0-inf): 2680 ng·h/mL
  Cmax at 1 day: 792 ng/mL
  MRT inf at 1 day: 2.79 h
  MRT last at 1 day: 2.48 h
  half-life at 1 day: 1.55 h
  AUC(0-t): 2600 ng·h/mL
  Tmax at 1 day: 1.33 h
[2]; [6]
  Cmax at 1 day: 699 ng/mL
  MRT inf at 1 day: 3.23 h
  MRT last at 1 day: 2.66 h
  half-life at 1 day: 2.05 h
  Tmax at 1 day: 1 h
[2]; [7]
  Cmax at 5 day: 5.96 ng/mL
  MRT last at 5 day: 4.56 h
  Tmax at 5 day: 0.333 h
  AUC(0-t): 11.4 ng·h/mL
[2]; Sprague-Dawley, rat, plasma, po, 10 mg/kg, repeat 10 mg/kg PO QD, Day 5, individual animal
  Tmax at 5 day: 0.5 h
[2]; 10 mg/kg PO QD for 5 days
  behaviour of exposure after 5 days of repeat dosing (in words): increased elimination
[2]; [8]
  AUCinf: 2140 ng·h/mL and 4070 ng·h/mL and 1840 ng·h/mL
  AUClast: 1990 ng·h/mL and 4030 ng·h/mL and 1770 ng·h/mL
  Cmax: 1090 ng/mL and 587 ng/mL
  MRTinf: 2.48 h and 2.66 h
  MRTlast: 2.42 h and 2.36 h
  T1/2: 1.04 h and 1.57 h
  Tmax: 2 h
[2]; [9]
  AUClast: 11.9 ng·h/mL and 14.9 ng·h/mL and 7.28 ng·h/mL
  Cmax: 5.53 ng/mL and 8.36 ng/mL and 3.98 ng/mL
  MRTlast: 3.29 h and 8.95 h and 1.44 h
  Tmax: 0.25 h
